The source of these data is patent US20240279236A1, “COMPOUNDS AND METHODS OF TREATING TUBERCULOSIS” (Fimbrion Therapeutics, Inc., priority 2021, published 2024).

Usually IC50 stands for the concentration that gives 50% inhibition. Higher therefore signals a need for much substance.

The assay relates to WT Mtb Erdman strain. The experiment in a line: Microplate Alamar Blue Assay (MABA), Mtb growth inhibition. The class given is cell-based, Mycobacterium tuberculosis. The conditions noted are these: Mycobacterium tuberculosis, ERDMAN, 168 h, Middlebrook 7H9 media, 7 days at 37° C. in 5% CO2. Background: The colour change of resazurin is a common sign of viable cells or microbes.

Bounds are passed on as bounds.

`CCCCSc1nc(N[C@@H]2C[C@H]2c2ccc(F)c(F)c2)c2cc(C)sc2n1` [Example 87, 2-(butylthio)-N-((1R,2S)-2-(3,4-difluorophenyl)cyclopropyl)-6-methylthieno[2,3-d]pyrimidin-4-amine] came in with an IC50 of 1500 nM.

The compound `Cc1cc2c(N[C@@H]3C[C@H]3c3ccc(F)c(F)c3)nc(-c3ccco3)nc2s1` [Example 88, N-((1R,2S)-2-(3,4-difluorophenyl)cyclopropyl)-2-(furan-2-yl)-6-methylthieno[2,3-d]pyrimidin-4-amine] had an IC50 of 2200 nM. This IC50 and that of the compound before are within 1.5-fold of each other.

Turning to `Cc1cccc(-c2nc(N[C@@H]3C[C@H]3c3ccc(F)c(F)c3)c3cc(C)sc3n2)n1` [Example 89, N-((1R,2S)-2-(3,4-difluorophenyl)cyclopropyl)-6-methyl-2-(6-methylpyridin-2-yl)thieno[2,3-d]pyrimidin-4-amine], the IC50 was > 10000 nM.

Consider `Cc1cc2c(NCCCc3ccccc3)nc(-c3ccc(Cl)cc3)nc2s1` [Example 90, 2-(4-chlorophenyl)-6-methyl-N-(3-phenylpropyl)thieno [2,3-d]pyrimidin-4-amine], for which the IC50 came to 2000 nM.

For `Cc1cc2c(NCCCc3ccccc3)nc(-c3cccc(Cl)c3)nc2s1` [Example 91, 2-(3-chlorophenyl)-6-methyl-N-(3-phenylpropyl)thieno [2,3-d]pyrimidin-4-amine], the IC50 stood at 5900 nM.

`Cc1cc2c(NCCCc3ccccc3)nc(-c3ccc(N(C)C)cc3)nc2s1` [Example 92, 2-(4-(dimethylamino)phenyl)-6-methyl-N-(3-phenylpropyl)thieno [2,3-d]pyrimidin-4-amine]: the IC50 came out at 2700 nM.

With `Cc1cc2c(NCCCc3ccccc3)nc(C3CCCC3)nc2s1` [Example 94, 2-cyclopentyl-6-methyl-N-(3-phenylpropyl)thieno [2,3-d]pyrimidin-4-amine], half-maximal inhibition (IC50) was put at 930 nM.

As to `Cc1cc2c(NCCCc3ccccc3)nc(C3CCCCC3)nc2s1` [Example 95, 2-cyclohexyl-6-methyl-N-(3- |phenylpropyl)thieno [2,3-d]pyrimidin-4-amine], the IC50 was > 10000 nM.

`Cc1cc2c(NCCCc3ccccc3)nc(C(N)=O)nc2s1` [Example 96, 6-methyl-4-((3-phenylpropyl)amino) thieno[2,3-d]pyrimidine-2-carboxamide] returned an IC50 of 130 nM.

As to `Cc1cc2c(NCCCc3ccccc3)nc(CC3CC3)nc2s1` [Example 97, 2-(cyclopropyLMethyl)-6-methyl-N-(3. phenylpropyl)thieno [2,3-d]pyrimidin-4-amine], the IC50 stood at 360 nM.

Consider `COC(=O)c1nc(NCCCc2ccccc2)c2cc(C)sc2n1` [Example 98, methyl 6-methyl-4-((3-phenylpropyl)amino) thieno[2,3-d]pyrimidine-2-carboxylate], for which the 50% inhibitory concentration (IC50) was > 10000 nM.

`CCc1nc(NCCCc2ccccc2)c2cc(C(F)(F)F)sc2n1` [Example 99, 2-ethyl-N-(3-phenylpropyl)-6-(trifluoromethyl)thieno [2,3-d]pyrimidin-4-amine] returned an IC50 of 5700 nM.

The compound `Cc1cc2c(NCCCc3ccccc3)nc(SC(C)C)nc2s1` [Example 100, 2-(isopropylthio)-6-methyl-N-(3-phenylpropyl)thieno [2,3-d]pyrimidin-4-amine] displayed an IC50 of 3200 nM. Against the preceding compound, the IC50 is about 1.8-fold lower.

Compound `Cc1cc2c(NCCCc3ccccc3)nc(-c3ccsc3)nc2s1` [Example 101, 6-methyl-N-(3-phenylpropyl)-2-(thiophen-3-yl)thieno[2,3-d]pyrimidin-4-amine] returned an IC50 of 490 nM.

As for `Cc1cc2c(NCCCc3ccccc3)nc(-c3ccoc3)nc2s1` [Example 102, 2-(furan-3-yl)-6-methyl-N-(3-phenylpropyl)thieno [2,3-d]pyrimidin-4-amine], the concentration for half-maximal inhibition (IC50) was 27 nM.

`COc1ccc(CCCNc2nc(SC)nc3sc(C)cc23)cc1` [Example 103, N-(3-(4-methoxyphenyl)propyl)-6-methyl-2-(methylthio)thieno[2,3-d]pyrimidin-4-amine] displayed a concentration for half-maximal inhibition (IC50) of 22 nM.

For the compound `Cc1cc2c(NCCCc3ccccc3)nc(-c3cccnn3)nc2s1` [Example 104, 6-methyl-N-(3-phenylpropyl)-2-(pyridazin-3-yl)thieno[2,3-d]pyrimidin-4-amine], 2000 nM corresponded to half-maximal inhibition (IC50). This IC50 lies about 91-fold higher than the previous one.

The compound `Cc1cc2c(NCCCc3ccccc3)nc(-c3cnccn3)nc2s1` [Example 105, 6-methyl-N-(3-phenylpropyl)-2-(pyrazin-2-yl)thieno[2,3-d]pyrimidin-4-amine] had an IC50 of 2000 nM.

Turning to `Cc1cc2c(NCCCc3ccccc3)nc(C3CCC3)nc2s1` [Example 106, 2-cyclobutyl-6-methyl-N-(3-phenylpropyl)thieno [2,3-d]pyrimidin-4-amine], half-maximal inhibition (IC50) required 490 nM.

Take `Cc1cc2c(N[C@@H]3C[C@H]3c3ccc(F)c(F)c3)nc(C(N)=O)nc2s1` [Example 107, 4-(((1R,2S)-2-(3,4-difluorophenyl)cyclopropyl)amino)-6-methylthieno[2,3-d]pyrimidine-2-carboxamide]: the IC50 was > 6400 nM.

With `Cc1cc2c(NCCCc3ccccc3)nc(CN3CCCC3)nc2s1` [Example 108, 6-methyl-N-(3-phenylpropyl)-2-(pyrrolidin-1-yLM ethyl)thieno[2,3-d]pyrimidin-4-amine], the IC50 is > 7800 nM.

For the compound `Cc1cc2c(NCCCc3ccccc3)nc(CN(C)C)nc2s1` [Example 109, 2-((dimethylamino)methyl)-6-methyl-N-(3-phenylpropyl)thieno [2,3-d]pyrimidin-4-amine], the IC50 was > 10000 nM.

As to `Cc1cc2c(NCCCc3ccccc3)nc(-c3ccon3)nc2s1` [Example 110, 2-(isoxazol-3-yl)-6-methyl-N-(3-phenylpropyl)thieno [2,3-d]pyrimidin-4-amine], inhibition was half-maximal at 55 nM (IC50).

The compound `Cc1cc(-c2nc(NCCCc3ccccc3)c3cc(C)sc3n2)no1` [Example 111, 6-methyl-2-(5-methylisoxazol-3-yl)-N-(3-phenylpropyl)thieno [2,3-d]pyrimidin-4-amin] displayed an IC50 of 210 nM. This IC50 is about 3.8-fold higher than that of the compound before.

`Cc1cc2c(NCCCc3ccccc3)nc(-c3cc[nH]n3)nc2s1` [Example 112, 6-methyl-N-(3-phenylpropyl)-2-(1H-pyrazol-3-yl)thieno[2,3-d]pyrimidin-4-amine] displayed an IC50 of 2800 nM. Compared with the last compound, the IC50 is about 13-fold higher.

Regarding `Cc1cc2c(NCCCc3ccccc3)nc(-c3ccco3)nc2s1` [Example 113], 800 nM corresponded to half-maximal inhibition (IC50).

`Cc1cc2c(N[C@@H]3C[C@H]3c3ccc(F)c(F)c3)nc(-c3ccoc3)nc2s1` [Example 114, N-((1R,2S)-2-(3,4-difluorophenyl)cyclopropyl)-2-(furan-3-yl)-6-methylthieno[2,3-d]pyrimidin-4-amine] gave an IC50 of 620 nM.

With `Cc1cc2c(N[C@@H]3C[C@H]3c3ccc(F)c(F)c3)nc(C3CCC3)nc2s1` [Example 115, 2-cyclobutyl-N-((1R,2S)-2-(3,4-difluorophenyl)cyclopropyl)-6-methylthieno[2,3-d]pyrimidin-4-amine], half-maximal inhibition (IC50) was put at 640 nM. The IC50 values of the last two compounds are within 1.5-fold of each other.

`COC(C)(C)c1nc(NCCCc2ccccc2)c2cc(C)sc2n1` [Example 116, 2-(2-methoxypropan-2-yl)-6-methyl-N-(3-phenylpropyl)thieno [2,3-d]pyrimidin-4-amine]: the IC50 is > 10000 nM.

On to `COC(=O)c1nc(NCCCc2ccc(OC(F)(F)F)cc2)c2cc(C)sc2n1` [Example 117, methyl 6-methyl-4-((3-(4-(trifluoromethoxy)phenyl)propyl)amino) thieno[2,3-d]pyrimidine-2-carboxylate], for which the IC50 is > 7700 nM.

On to `COc1ccc(CCCNc2nc(-c3ccoc3)nc3sc(C)cc23)cc1` [Example 118, 2-(furan-3-yl)-N-(3-(4-methoxyphenyl)propyl)-6-methylthieno[2,3-d]pyrimidin-4-amine], for which half-maximal inhibition (IC50) required 82 nM.

Take `Cc1cc2c(NCCCc3ccccc3)nc(-c3cnsc3)nc2s1` [Example 119, 2-(isothiazol-4-yl)-6-methyl-N-(3-phenylpropyl)thieno [2,3-d]pyrimidin-4-amine]: the IC50 came out at 560 nM.

`Cc1cc2c(NCCCc3ccccc3)nc(C3CCOC3)nc2s1` (centres unmarked) [Example 120, 6-methyl-N-(3-phenylpropyl)-2-(tetrahydrofuran-3-yl)thieno[2,3-d]pyrimidin-4-amine] yielded an IC50 of 3000 nM.

`Cc1cc2c(NCCCc3ccc(OC(F)(F)F)cc3)nc(-c3ccon3)nc2s1` [Example 121, 2-(isoxazol-3-yl)-6-methyl-N-(3-(4-(trifluoromethoxy)phenyl)propyl)thieno[2,3-d]pyrimidin-4-amine] displayed an IC50 of 130 nM.

Regarding `Cc1cc(-c2nc(NCCCc3ccc(OC(F)(F)F)cc3)c3cc(C)sc3n2)no1` [Example 122, 6-methyl-2-(5-methylisoxazol-3-yl)-N-(3-(4-(trifluoromethoxy)phenyl)propyl)thieno [2,3-d]pyrimidin-4-amine], the IC50 turned out to be 190 nM.

In turn, `Cc1cc2c(NCCCc3ccc(OC(F)(F)F)cc3)nc(-c3ccccn3)nc2s1` [Example 123, 6-methyl-2-(pyridin-2-yl)-N-(3-(4-(trifluoromethoxy)phenyl)propyl)thieno [2,3-d]pyrimidin-4-amine] gave an IC50 of 1800 nM.

On to `CSc1nc(NCCCc2ccc(OC(F)(F)F)cc2)c2cc(C)sc2n1` [Example 124, 6-methyl-2-(methylthio)-N-(3-(4-(trifluoromethoxy)phenyl)propyl) thieno[2,3-d]pyrimidin-4-amine], for which the midpoint of inhibition, the IC50, lay at 62 nM.

In turn, `Cc1cc2c(NCCCc3ccc(OC(F)(F)F)cc3)nc(-c3cnsc3)nc2s1` [Example 125, 2-(isothiazol-4-yl)-6-methyl-N-(3-(4-(trifluoromethoxy)phenyl)propyl)thieno [2,3-d]pyrimidin-4-amine] registered an IC50 of 610 nM.

On to `Cc1cc2c(NCCCc3ccccc3)nc(-c3ccc(F)cc3)nc2s1` [Example 126, 2-(4-fluorophenyl)-6-methyl-N-(3-phenylpropyl)thieno [2,3-d]pyrimidin-4-amine], for which the IC50 is 2600 nM. Against the preceding compound, the IC50 is about 4.3-fold higher.

The compound `CCc1nc(NCCc2ccc(Cl)c(Cl)c2)c2cc(C)sc2n1` [Example 127, N-(3,4-dichlorophenethyl)-2-ethyl-6-methylthieno[2,3-d]pyrimidin-4-amine] displayed an IC50 of 2800 nM.

For `Cc1cc2c(NCCCc3ccccc3)nc(-c3cscn3)nc2s1` [Example 128, 6-methyl-N-(3-phenylpropyl)-2-(thiazol-4-yl)thieno[2,3-d]pyrimidin-4-amine], the IC50 is 660 nM.
